Measurements published in patent US9072293B2, “Cyclopropenes and method for applying cyclopropenes to agricultural products or crops” (Erum Biotechnologies Inc., priority 2010, dated 2015).
Values joined by “and” are separate entries in the source; they are usually repeats but may differ in a detail not shown here. Identical values can stand only once.

Assays:
[1] = test system: tomato; experiment: Experimental Example 3: Efficacy test on tomato for other drugs (emulsion and oil-based formulation); type: in vivo; conditions: individual tomatoes n=4
Experimental: At this time, the tops of tomatoes most early turned red, while the bottoms thereof most lately turned red. For this reason, in order to accurately evaluate the difference in reddening, the coloring evaluated was based on the area of red color, rather than the color of tomatoes. […] Accordingly, the grade level is proportional to the rate at which the tomatoes ripened.
1.0 mM emulsions and oil-based formulations of four agents, i.e., 1-(2-(4-methoxyphenyl)ethyl)cyclopropene, 1-(3-(4-methoxyphenyl)propyl)cyclopropene, 1-(3-phenoxypropyl)cyclopropene and 1-(4-phenoxybutyl)cyclopropene were prepared in accordance with Examples 1 and 2.
The tomatoes were screened in the same manner as in Experimental Example 1 and divided into 9 groups (n=4), i.e., a non-treated group and 4 emulsion-type agent groups and 4 oil-based formulation-type agent groups. Tomatoes were treated with the previously prepared agent using a household sprayer such that the surface thereof was saturated. The tomatoes were stood at room temperature (25-30° C.) for 3 days and a reddening level thereof was evaluated based on grades of 0 to 5.

[2] = Relative chemical stability of cyclopropenes measured by 1H-NMR; type: physicochemical; conditions: 1H-NMR, CDCl3, stored at −20° C. or room temperature; relative to chain length 1
Source text: A variety of analysis methods can be used to analyze the derivatives of Formula 6, since the absorbance of cyclopropenes containing an aryl group can be easily measured in the UV range. It can be confirmed that the chemical stability of the derivatives increases, when the length of chains to link an aryl ring to a cyclopropene ring is 2 or more. […] It is supposed that the stability of cyclopropenes increase due to the fact that π electrons of aryl groups affect π electrons of cyclopropenes.
The following Table 1 summarizes the relative chemical stability of cyclopropenes having a chain length of 2, 3, 4 or 5, based on the chemical stability of cyclopropenes having a chain length of 1. In the case of cyclopropene having a chain length of 1, the structure thereof can be confirmed via ^1H-NMR within one hour following synthesis (degraded to a level of 50% or more within one hour at 30° C.). In the case of cyclopropene having a chain length of zero, synthesis thereof was attempted in accordance with the present invention, but was impossible by a conventional method. Meanwhile, in the case of cyclopropenes having a chain length of 2 or more, the structure thereof can be precisely confirmed by ^1H-NMR as well as ^13C-NMR. The stability of these cyclopropenes was measured by ^1H-NMR while NMR cells (CDCl3) were stored at −20° C. or room temperature. In particular, cyclopropenes having chains of 3 or more were so stable that their half-life reached 5 days or longer at −20° C. or lower. In ^1H-NMR analysis, the stability was evaluated by comparing integral values at 4 to 6.5 ppm (1H) and 0.8 to 0.9 ppm (2H), characteristic peaks of 1-alkylcyclopropenes, using a small amount of 1,1,3,3-tetramethylurea (2.80 ppm) as an internal standard. Furthermore, the stability was also qualitatively evaluated by comparing integral value of the peak newly generated adjacent to the peak of the olefin proton of cyclopropene ring, as a 1-alkylcyclopropene compound is decomposed.

Stability (relative chemical stability, based on cyclopropenes having a chain length of 1) [2]: >>10
Compound: C1=C(CCCOc2ccccc2)C1 [(3-Phenoxypropyl), 1-(3-phenoxypropyl)cyclopropene]
reddening level (grade 0 to 5) ([1]; 1.0 mM Emulsion, Day 0, room temperature (25-30° C.)): 0 (an area in which the surface of tomato was colored in pink was 10% or less) (2×) and 1 (an area in which the surface of tomato was completely colored in red was 10 to 40%) and 2 (an area in which the surface of tomato was completely colored in red was 40 to 70%)
reddening level (grade 0 to 5) ([1]; 1.0 mM Emulsion, Day 1, room temperature (25-30° C.)): 0 (an area in which the surface of tomato was colored in pink was 10% or less) (2×) and 1 (an area in which the surface of tomato was completely colored in red was 10 to 40%) and 2 (an area in which the surface of tomato was completely colored in red was 40 to 70%)
reddening level (grade 0 to 5) ([1]; 1.0 mM Emulsion, Day 2, room temperature (25-30° C.)): 1 (an area in which the surface of tomato was completely colored in red was 10 to 40%) (2×) and 2 (an area in which the surface of tomato was completely colored in red was 40 to 70%) (2×)
reddening level (grade 0 to 5) ([1]; 1.0 mM Emulsion, Day 3, room temperature (25-30° C.)): 2 (an area in which the surface of tomato was completely colored in red was 40 to 70%) (2×) and 3 (an area in which the surface of tomato was completely colored in red was 70% or more and the bottom area remained green) (2×)
reddening level (grade 0 to 5) ([1]; 1.0 mM Oil-based formulation, Day 0, room temperature (25-30° C.)): 0 (an area in which the surface of tomato was colored in pink was 10% or less) (2×) and 1 (an area in which the surface of tomato was completely colored in red was 10 to 40%) and 2 (an area in which the surface of tomato was completely colored in red was 40 to 70%)
reddening level (grade 0 to 5) ([1]; 1.0 mM Oil-based formulation, Day 1, room temperature (25-30° C.)): 0 (an area in which the surface of tomato was colored in pink was 10% or less) (2×) and 1 (an area in which the surface of tomato was completely colored in red was 10 to 40%) and 2 (an area in which the surface of tomato was completely colored in red was 40 to 70%)
reddening level (grade 0 to 5) ([1]; 1.0 mM Oil-based formulation, Day 2, room temperature (25-30° C.)): 0 (an area in which the surface of tomato was colored in pink was 10% or less) (2×) and 2 (an area in which the surface of tomato was completely colored in red was 40 to 70%) and 3 (an area in which the surface of tomato was completely colored in red was 70% or more and the bottom area remained green)
reddening level (grade 0 to 5) ([1]; 1.0 mM Oil-based formulation, Day 3, room temperature (25-30° C.)): 1 (an area in which the surface of tomato was completely colored in red was 10 to 40%) (2×) and 2 (an area in which the surface of tomato was completely colored in red was 40 to 70%) and 3 (an area in which the surface of tomato was completely colored in red was 70% or more and the bottom area remained green)
